Literature values, collected in US9302007B2, “Low surfactant iodine topical disinfectant” (DELAVAL HOLDING AB, priority 2011, dated 2016).

Settings: room temperature

II
solubility of iodine in water: about 300 ppm
